Experimental findings from PMC9430695 are described below.

Experiment [1] has as its target T1, Sortase A (SrtA) (Staphylococcus aureus, UniProt Q2FV99).
T1 construct: SrtA residues Gln-60-Lys-206 (SrtA ΔN59), from S. aureus USA300, 6 × His tag
The experiment can be described thus: biochemical. Details: FRET cleavage of Abz-LPATG-Dap(Dnp)-NH2 by purified SrtA, fluorescence 309/420 nm. The method, then:
Fluorescence resonant energy transfer (FRET) was used to screen the effect of the SrtA inhibitor ([22]). Purified SrtA (4 μM) and hibifolin with different concentrations were added into a 100 μL reaction system, incubating at 37°C for 1 h. A fluorescent substrate peptide Abz-LPATG-Dap (Dnp)-NH2 (10 μM) (Beijing, China) was added to initiate the reaction. After incubating at 37°C for 20 min, the fluorescent microplate reader was measured with the excitation wavelength at 309 nm and the emission wavelength at 420 nm. Subsequently, a gradient concentration inhibition curve was performed and IC50 was calculated. When the inhibitory activity was greater than 60%, the compound was considered a potential inhibitor. The representative list of our nature compounds library has been compiled in Table S3 in Supplemental File 1 along with the results of the initial screening.

The target in experiment [2] is T1, Sortase A (SrtA). The experiment can be described thus: fluorescence quenching (KA); also FRET inhibition of purified SrtA, IC50 […]. The following applies: read-out: fluorescence quenching (KA), IC50 31.20 μ (converted). Type of experiment: binding.
[3] abbreviates: library screen, read-out: Relative inhibition rate (%).
Where [4] appears, read: read-out: SrtA relative inhibition rate (%).

Usually inhibition stands for the share of the control response that was lost under treatment.

Like-named read-outs stand apart in the source and are kept apart here.

T1 sequence (Q2FV99 60-206): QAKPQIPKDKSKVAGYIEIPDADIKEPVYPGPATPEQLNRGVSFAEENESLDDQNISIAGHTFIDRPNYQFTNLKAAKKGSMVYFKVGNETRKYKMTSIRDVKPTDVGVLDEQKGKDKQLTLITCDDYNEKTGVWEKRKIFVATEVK

With `O=C(O[C@H]1[C@H](Oc2c(-c3ccc(O)c(O)c3)oc3cc(O)cc(O)c3c2=O)O[C@H](CO)[C@H](O)[C@@H]1O)c1cc(O)c(O)c(O)c1` [2"-O-Galloylhyperin], the inhibition at 64 µg/mL in experiment [1] (setting [3]) amounted to 42.4%.
Still for that read-out and setting: with `COc1ccc(-c2cc(=O)c3c(OC)cc(OC)c(OC)c3o2)cc1` [5,7,8,4'-Tetramethoxyflavone] the figure was 27.4%; with `COc1ccc(-c2cc(=O)c3c(O)c(OC)c(OC)c(OC)c3o2)cc1OC` [5-Demethylnobiletin], 54.3%.
On the same count and under the same terms, the result for `COc1ccc(-c2coc3cc(OC)ccc3c2=O)cc1` [7,4'-Dimethoxyisoflavone] reads 44%; that for `C/C=C/c1cc(OC)c2c(c1)[C@@H](C)[C@H](c1ccc3c(c1)OCO3)O2` [(-)-Licarin B], 38.9%; that for `COc1cc(C[C@H](C)[C@H](C)Cc2ccc3c(c2)OCO3)ccc1O` [Anwulignan], 15.6%.
For the compound `COc1ccc(-c2oc3cc(OC)c(OC)c(O)c3c(=O)c2OC)cc1OC` [Artemetin], in experiment [1] (setting [3]), the inhibition at 64 µg/mL was found to be 32.8%.
Still for that read-out and setting: with `O=c1c(O[C@@H]2O[C@@H](CO)[C@H](O)[C@H]2O)c(-c2ccc(O)c(O)c2)oc2cc(O)cc(O)c12` [Avicularin] the figure was 45.3%; with `COc1ccc(-c2cc(=O)c3c(O)cc(O)cc3o2)cc1-c1c(O)cc(O)c2c(=O)cc(-c3ccc(O)cc3)oc12` [Bilobetin], 17.8%; with `COc1cc(-c2oc3cc(OC)c(OC)c(O)c3c(=O)c2OC)ccc1O` [Chrysosplenetin], 34.2%.
Consider `CC(C)=CCC/C(C)=C/Cc1cc(-c2coc3cc(O)ccc3c2=O)ccc1O` [Corylifol A], for which, in experiment [1] (setting [3]), the inhibition at 64 µg/mL came out at 36.8%.
On the same count and under the same terms, the result for `O=c1cc(-c2ccc(O)cc2)oc2cc(O[C@@H]3O[C@H](CO)[C@@H](O)[C@H](O)[C@H]3O)cc(O)c12` [Cosmosiin] reads 46.8%; that for `COc1ccc([C@@H]2OC[C@H]3[C@@H]2CO[C@@H]3c2ccc(O[C@@H]3O[C@H](CO)[C@@H](O)[C@H](O)[C@H]3O)c(OC)c2)cc1OC` [Forsythin], 14.8%.
Still for that read-out and setting: with `COc1cc(O)c2c(=O)cc(-c3ccc(OC)c(-c4c(O)cc(O)c5c(=O)cc(-c6ccc(O)cc6)oc45)c3)oc2c1` [Ginkgetin] the figure was 0.25%.
As to `O=c1cc(-c2ccc(Oc3c(O)cc4oc(-c5ccc(O)cc5)cc(=O)c4c3O)cc2)oc2cc(O)cc(O)c12` [Hinokiflavone], the inhibition at 64 µg/mL in experiment [1] (setting [4]) amounted to 36.2%.
Consider `COc1c(O)cc2oc(-c3ccc(O)cc3)cc(=O)c2c1O` [Hispidulin], for which the inhibition at 64 µg/mL in experiment [1] (setting [3]) stood at 50%.
For `COc1cc(-c2coc3cc(O)c(OC)c(O)c3c2=O)cc(O)c1OC` [Irigenin], the inhibition at 64 µg/mL in experiment [1] (setting [3]) amounted to 30.3%.
On the same count and under the same terms, the result for `COc1cc2c(c(OC)c1OC)-c1c(cc3c(c1OC)OCO3)[C@H](OC(C)=O)[C@H](C)[C@H](C)C2` [Kadsurin] reads 16.9%.
Same read-out and setting: with `COc1ccc(-c2oc3cc(OC)cc(O)c3c(=O)c2OC)cc1` [Kaempferol 3,7,4'-trimethyl ether] the figure was 32.6%; with `O=c1c(O[C@@H]2O[C@H](CO)[C@@H](O)[C@H](O)[C@H]2O[C@@H]2OC[C@@H](O)[C@H](O)[C@H]2O)c(-c2ccc(O)cc2)oc2cc(O)cc(O)c12` [Leucoside], 27.3%; with `O=C(/C=C/c1ccc(O)c2c1[C@H](C(=O)O)[C@@H](c1ccc(O)c(O)c1)O2)O[C@H](Cc1ccc(O)c(O)c1)C(=O)O` [Lithospermic acid], 51.7%.
Same read-out and setting: the result for `C=CCc1cc(OC)c(O[C@@H](C)[C@H](O)c2ccc(O)c(OC)c2)c(OC)c1` [Myrislignan] reads 1.72%; that for `COc1cc(-c2oc3cc(O)cc(O)c3c(=O)c2O[C@@H]2O[C@H](CO[C@@H]3O[C@@H](C)[C@H](O)[C@@H](O)[C@H]3O)[C@@H](O)[C@H](O)[C@H]2O)ccc1O` [Narcissin], 44.5%; that for `Oc1cc(O)c2c(c1)O[C@H](c1ccc(O)c(O)c1)[C@H](O)[C@H]2c1c(O)cc(O)c2c1O[C@H](c1ccc(O)c(O)c1)[C@H](O)C2` [Procyanidin B2], 13.8%.
As to `O=c1c(O[C@@H]2O[C@H](CO)[C@@H](O)[C@H](O)[C@H]2O[C@@H]2O[C@H](CO)[C@@H](O)[C@H](O)[C@H]2O)c(-c2ccc(O)c(O)c2)oc2cc(O)cc(O)c12` [Quercetin 3-O-sophoroside], the inhibition at 64 µg/mL in experiment [1] (setting [3]) was found to be 37.8%.
Still for that read-out and setting: with `O=c1cc(-c2ccc(O)cc2)oc2cc(O)c(O)c(O)c12` [Scutellarein] the figure was 42.1%.
For the compound `COC(=O)[C@H]1O[C@@H](Oc2cc3oc(-c4ccc(O)cc4)cc(=O)c3c(O)c2O)[C@H](O)[C@@H](O)[C@@H]1O` [Scutellarin Methyl Ester], the inhibition at 64 µg/mL in experiment [1] (setting [4]) is 73.8%.
With `COc1ccc(-c2cc(=O)c3c(OC)c(OC)c(OC)cc3o2)cc1OC` [Sinensetin], the inhibition at 64 µg/mL in experiment [1] (setting [3]) came to 23.8%.
Still for that read-out and setting: the result for `O=c1c(-c2ccc(O[C@@H]3O[C@H](CO)[C@@H](O)[C@H](O)[C@H]3O)cc2)coc2cc(O)cc(O)c12` [Sophoricoside] reads 14.4%.
As to `COc1ccc(-c2oc3cc(O)cc(O)c3c(=O)c2O)cc1O` [Tamarixetin], the inhibition at 64 µg/mL in experiment [1] (setting [4]) was determined as 26.2%.
`O=C1c2c(O)cc(O)cc2O[C@H](c2ccc(O)c(O)c2)[C@H]1O` [Taxifolin]: in experiment [1] (setting [4]), the inhibition at 64 µg/mL came to 56%.
Turning to `COc1c(O[C@@H]2O[C@H](CO)[C@@H](O)[C@H](O)[C@H]2O)cc2occ(-c3ccc(O)cc3)c(=O)c2c1O` [Tectoridin], in experiment [1] (setting [3]), the inhibition at 64 µg/mL came to 20%.
In the case of `O=c1cc(-c2ccc(O)cc2)oc2c([C@@H]3O[C@H](CO)[C@@H](O)[C@H](O)[C@H]3O)c(O)c([C@@H]3O[C@H](CO)[C@@H](O)[C@H](O)[C@H]3O)c(O)c12` [Vicenin-2], the inhibition at 64 µg/mL in experiment [1] (setting [4]) turned out to be 67.6%.
For the compound `C[C@@H]1O[C@@H](Oc2cc(O)c3c(=O)c(O)c(-c4ccc(O)c(O)c4)oc3c2)[C@H](O)[C@H](O)[C@H]1O` [Vincetoxicoside B], the inhibition at 64 µg/mL in experiment [1] (setting [4]) was found to be 57.2%.
In the case of `O=C(O)[C@H]1O[C@@H](Oc2c(O)cc(O)c3c(=O)c(O)c(-c4ccc(O)c(O)c4)oc23)[C@H](O)[C@@H](O)[C@@H]1O` [hibifolin], the Kd in experiment [2] was 58.1 µM. Further, the inhibition at 64 µg/mL came to 65.3% in experiment [1] (setting [3]) and 74.6% in experiment [1] (setting [4]).
